Source: ChEMBL document CHEMBL1201862, “PubChem BioAssay data set” (2004)
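Assay format: 96-well plates, 48-hour exposure. GI50: concentration for 50% inhibition of growth.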 Active and inactive are the calls of the source. No stated cut-off is given here; in the data, active = GI50 up to about 1.1 µM and inactive = higher.

Key:
Experiment in all cases: NCI tumour cell line growth inhibition, 48 h
TK-10 = test system: TK-10
SK-MEL-28 = test system: SK-MEL-28
NCI-H23 = test system: NCI-H23
HCC 2998 = test system: HCC 2998
RPMI-8226 = test system: RPMI-8226
Malme-3M = test system: Malme-3M
BT-549 = test system: BT-549
U-251 = test system: U-251
T47D = test system: T47D
UACC-257 = test system: UACC-257
M14 = test system: M14
HL-60 = test system: HL-60
MDA-N = test system: MDA-N
EKVX = test system: EKVX
SNB-75 = test system: SNB-75
IGROV-1 = test system: IGROV-1
ACHN = test system: ACHN
MDA-MB-231 = test system: MDA-MB-231
UO-31 = test system: UO-31
A498 = test system: A498

Row | Structure (SMILES) | GI50 (TK-10) | GI50 (SK-MEL-28) | GI50 (NCI-H23) | GI50 (HCC 2998) | GI50 (RPMI-8226) | GI50 (Malme-3M) | GI50 (BT-549) | GI50 (U-251) | GI50 (T47D) | GI50 (UACC-257) | GI50 (M14) | GI50 (HL-60) | GI50 (MDA-N) | GI50 (EKVX) | GI50 (SNB-75) | GI50 (IGROV-1) | GI50 (ACHN) | GI50 (MDA-MB-231) | GI50 (UO-31) | GI50 (A498)
1 | COc1cc2c(cc1O)CCN[C@@]21CS[C@H]2c3c(OC(C)=O)c(C)c4c(c3C(COC1=O)N1C2C2c3c(cc(C)c(OC)c3O)CC([C@@H]1O)N2C)OCO4 (stereo not given in full) | < 0.0001 µM (active) | < 0.0001 µM (active) | < 0.0001 µM (active) | 0.0001 µM (active) | 0.00191 µM (active) | < 0.0001 µM (active) | 0.00181 µM (active) | 0.0001 µM (active) | 0.00296 µM (active) | < 0.0001 µM (active) | < 0.0001 µM (active) | < 0.0001 µM (active) | < 0.0001 µM (active) | < 0.0001 µM (active) | 0.00131 µM (active) | < 0.0001 µM (active) | < 0.0001 µM (active) | < 0.0001 µM (active) |  | 
2 | O=S(=O)(O)n1ccnc1 | > 100 µM (inactive) | > 100 µM (inactive) | > 100 µM (inactive) |  | > 100 µM (inactive) | > 100 µM (inactive) | > 100 µM (inactive) | > 100 µM (inactive) | > 100 µM (inactive) | > 100 µM (inactive) | > 100 µM (inactive) | > 100 µM (inactive) | > 100 µM (inactive) | > 100 µM (inactive) | > 100 µM (inactive) | > 100 µM (inactive) | > 100 µM (inactive) | > 100 µM (inactive) | > 100 µM (inactive) | > 100 µM (inactive)
3 | O=C(CNc1nccs1)Nn1cnc2ccc(S(=O)(=O)Nc3nccs3)cc2c1=O | > 100 µM (inactive) | > 100 µM (inactive) | > 100 µM (inactive) | > 100 µM (inactive) | > 100 µM (inactive) | > 100 µM (inactive) | > 100 µM (inactive) | > 100 µM (inactive) |  | > 100 µM (inactive) | > 100 µM (inactive) | > 100 µM (inactive) | > 100 µM (inactive) | > 100 µM (inactive) | > 100 µM (inactive) | > 100 µM (inactive) | > 100 µM (inactive) | > 100 µM (inactive) | > 100 µM (inactive) | 
4 | C=CCOC(=O)C1=C(C)N=C2N[C@H](CCCCCCCCC)C[C@@H]3CCC1N23 (stereo not given in full) | 19.2 µM (inactive) | 21.7 µM (inactive) | 20 µM (inactive) | 21.9 µM (inactive) | 30.7 µM (inactive) | 17.3 µM (inactive) | 19.9 µM (inactive) | 20.9 µM (inactive) | 23.2 µM (inactive) | 18.3 µM (inactive) | 18.7 µM (inactive) | 26.4 µM (inactive) | 18.4 µM (inactive) | 22.4 µM (inactive) | 30.5 µM (inactive) | 21.6 µM (inactive) | 21.5 µM (inactive) | 21.5 µM (inactive) | 17.1 µM (inactive) | 
5 | Cc1ccc(S(=O)(=O)Nn2c(-c3ccccc3)c(C#N)c(-c3ccc(Cl)cc3)c(C#N)c2=O)cc1 | 38 µM (inactive) | 24.4 µM (inactive) |  | 23.7 µM (inactive) | 14 µM (inactive) |  | 18.5 µM (inactive) | 21.5 µM (inactive) |  | 32.8 µM (inactive) | 18.4 µM (inactive) | 14.6 µM (inactive) | 28.4 µM (inactive) |  |  |  | 22 µM (inactive) | 20 µM (inactive) |  | 21.8 µM (inactive)
6 | [N-]=[N+]=CC(=O)OC1CCc2ccccc21 (stereo not given) | 59.6 µM (inactive) | > 100 µM (inactive) | 82.8 µM (inactive) | > 100 µM (inactive) | > 100 µM (inactive) | > 100 µM (inactive) | > 100 µM (inactive) | > 100 µM (inactive) |  | > 100 µM (inactive) |  | 42.3 µM (inactive) | > 100 µM (inactive) | > 100 µM (inactive) |  | > 100 µM (inactive) | 9.95 µM (inactive) | 44.1 µM (inactive) | 13.7 µM (inactive) | > 100 µM (inactive)
7 | CC1CC(=O)Nc2ccc(/N=N/N(C)C)cc2N1C=O (stereo not given) | > 100 µM (inactive) | > 100 µM (inactive) | > 100 µM (inactive) | > 100 µM (inactive) | > 100 µM (inactive) | > 100 µM (inactive) | > 100 µM (inactive) | > 100 µM (inactive) | > 100 µM (inactive) | > 100 µM (inactive) | > 100 µM (inactive) |  | > 100 µM (inactive) | > 100 µM (inactive) | > 100 µM (inactive) | > 100 µM (inactive) | > 100 µM (inactive) | > 100 µM (inactive) | > 100 µM (inactive) | 
8 | CN1Cc2cc3cc4c(cc3nc2N(C)C1)OCCO4 | > 100 µM (inactive) |  |  | > 100 µM (inactive) | 54.7 µM (inactive) | > 100 µM (inactive) | > 100 µM (inactive) | > 100 µM (inactive) |  | > 100 µM (inactive) | > 100 µM (inactive) |  | > 100 µM (inactive) | > 100 µM (inactive) | > 100 µM (inactive) | > 100 µM (inactive) | > 100 µM (inactive) | > 100 µM (inactive) |  | 68.4 µM (inactive)
9 | CCCCCCCCCCCCCCCC(=O)OCC1CCCN2CCCCC12 (stereo not given) | > 100 µM (inactive) | > 100 µM (inactive) | > 100 µM (inactive) | > 100 µM (inactive) | > 100 µM (inactive) | > 100 µM (inactive) | > 100 µM (inactive) | > 100 µM (inactive) |  | > 100 µM (inactive) | > 100 µM (inactive) | > 100 µM (inactive) | > 100 µM (inactive) | > 100 µM (inactive) | > 100 µM (inactive) |  | > 100 µM (inactive) | > 100 µM (inactive) | > 100 µM (inactive) | > 100 µM (inactive)
10 | CC(C)=CCC/C(C)=C/CCC1(C)C2COC(=O)C21 (stereo not given) | > 100 µM (inactive) | 29 µM (inactive) | 51.3 µM (inactive) | > 100 µM (inactive) |  | > 100 µM (inactive) | 49.8 µM (inactive) | 66.2 µM (inactive) |  | > 100 µM (inactive) |  | 19.8 µM (inactive) | 54.7 µM (inactive) | 53.2 µM (inactive) |  | > 100 µM (inactive) | > 100 µM (inactive) | > 100 µM (inactive) | 43.3 µM (inactive) | > 100 µM (inactive)
11 | Cc1c(C(=O)O)c2cc3ccccc3cc2c(=O)n1C | > 10 µM (inactive) |  | > 10 µM (inactive) | > 10 µM (inactive) |  | > 10 µM (inactive) | > 10 µM (inactive) | > 10 µM (inactive) | > 10 µM (inactive) | > 10 µM (inactive) | > 10 µM (inactive) | > 10 µM (inactive) | > 10 µM (inactive) | > 10 µM (inactive) | > 10 µM (inactive) | > 10 µM (inactive) | > 10 µM (inactive) | > 10 µM (inactive) | > 10 µM (inactive) | 
12 | COc1cc(COC(=O)N(C)[C@@H](Cc2ccccc2)C(=O)O)c([N+](=O)[O-])cc1OC |  |  | > 100 µM (inactive) | > 100 µM (inactive) | > 100 µM (inactive) | > 100 µM (inactive) | > 100 µM (inactive) | > 100 µM (inactive) | > 100 µM (inactive) | > 100 µM (inactive) | > 100 µM (inactive) | > 100 µM (inactive) | > 100 µM (inactive) | > 100 µM (inactive) | > 100 µM (inactive) | > 100 µM (inactive) | > 100 µM (inactive) |  | > 100 µM (inactive) | 
13 | O=C(O)c1cccc(/C=C/c2ccccc2)c1 | > 100 µM (inactive) | > 100 µM (inactive) | > 100 µM (inactive) |  | > 100 µM (inactive) | 72.6 µM (inactive) | > 100 µM (inactive) | > 100 µM (inactive) | > 100 µM (inactive) | > 100 µM (inactive) | > 100 µM (inactive) |  |  | > 100 µM (inactive) | > 100 µM (inactive) | > 100 µM (inactive) | > 100 µM (inactive) | > 100 µM (inactive) | > 100 µM (inactive) | > 100 µM (inactive)
14 | O/N=N/c1ccc(-c2ccccc2)cn1 | 22.3 µM (inactive) | 45.2 µM (inactive) | 4 µM (inactive) | 16.9 µM (inactive) | < 0.01 µM (active) | 11.5 µM (inactive) | 30.7 µM (inactive) | 15.7 µM (inactive) | 8.18 µM (inactive) | 43.9 µM (inactive) | 9.08 µM (inactive) | 0.176 µM (active) |  | 7.5 µM (inactive) | 6.46 µM (inactive) | 27.7 µM (inactive) | 2.86 µM (inactive) | 28.6 µM (inactive) | 13.2 µM (inactive) | 13 µM (inactive)
15 | CC(=O)C1C(=O)C(=O)N(c2cccc(C)c2C)C1=O (stereo not given) | > 100 µM (inactive) |  | > 100 µM (inactive) |  |  |  | > 100 µM (inactive) |  | > 100 µM (inactive) | > 100 µM (inactive) | > 100 µM (inactive) | > 100 µM (inactive) | > 100 µM (inactive) | > 100 µM (inactive) | > 100 µM (inactive) | > 100 µM (inactive) | > 100 µM (inactive) | > 100 µM (inactive) | > 100 µM (inactive) | 
16 | CCC(CCCN)Nc1cc(OC)cc2c(C)ccnc12 (stereo not given) | 17.7 µM (inactive) | 16.9 µM (inactive) |  | 18.8 µM (inactive) |  | 19.6 µM (inactive) | 14.9 µM (inactive) |  |  | 17.9 µM (inactive) | 15.2 µM (inactive) | 12.4 µM (inactive) | 17.5 µM (inactive) | 18.4 µM (inactive) | 12.7 µM (inactive) | 16.8 µM (inactive) | 18.3 µM (inactive) | 13.3 µM (inactive) | 12.9 µM (inactive) | 18.7 µM (inactive)
